The values below come from US20230123334A1, “AMINO LIPID COMPOUND, PREPARATION METHOD THEREFOR, AND APPLICATION THEREOF” (SHENZHEN SHENXIN BIOTECHNOLOGY CO., LTD., priority 2020, published 2023).

The test system of assay [1] is HEK293 cells. As to the kind of experiment: Preliminary screening as mRNA vectors, EGFP mRNA transfection of HEK293 cells. Type of assay: cell-based. As to conditions: HEK293 cells, 96-well plates, EGFP mRNA 50 ng per well; percentage of GFP fluorescent cells relative to total number of cells (Hoechst). In a few lines:
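Each well of HEK293 cells received 50 ng of EGFP mRNA. Efficiency was expressed as percent GFP-expressing cells over Hoechst-defined total cell number.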

Assay [2] has as its system HEK293 cells. As to the kind of experiment: Preliminary screening as DNA vectors, GFP transfection of HEK293 cells. Type of assay: cell-based. The settings on record: HEK293 cells; lipid/DOPE liposome with 75 ng plasmid DNA (psin-EGFP-IRES-Puro); number of cells expressing GFP divided by total number of nuclei (Hoechst). In a few lines: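 Lipid + DOPE liposomes (NaOAc, pH 5.6) complexed w/ 75 ng psin-EGFP-IRES-Puro, 30 min RT; added to 3-5×10^4 HEK293/well, 37° C. Hoechst 0.2 μg/mL at 20-24 h, imaged after further 20-24 h. Efficiency = GFP+ cells / total nuclei.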

`CCCCCCCCCCCCNc1nc(NCCCCCCCCCCC)nc(NCCN(CC)CC)n1` [Compound N11N12D7]: the “Absolute mRNA transfection efficiency in HEK293 cells” value (from here on “Absolute mRNA transfection efficiency”) in the assay with HEK293 cells [1] was found to be 2.4%. Besides, in the assay on HEK293 cells [2], the “Absolute DNA transfection efficiency in HEK293 cells” value (“Absolute DNA transfection efficiency” below) is 0.0%.
As for `CCCCCCCCCCCCNc1nc(NCCCCCCCCCCC)nc(NCCCN2CCOCC2)n1` [Compound N11N12D8], in the assay on HEK293 cells [1], the “Absolute mRNA transfection efficiency” value was found to be 2.8%. Also, the “Absolute DNA transfection efficiency” value in the assay with HEK293 cells [2] is 0.0%.
The like results for `CCCCCCCCCCCCNc1nc(NCCCCCCCCCCC)nc(NCCCN2CCN(C)CC2)n1` [Compound N11N12D9] were, in that order, 0.3% and 0.0%.
On to `CCCCCCCCCCCCNc1nc(NCCCCCCCCCCC)nc(NCC2CCN(C)CC2)n1` [Compound N11N12D10], for which the “Absolute mRNA transfection efficiency” value with HEK293 cells [1] is reported as 0.4%. For the same compound, in the assay with HEK293 cells [2], the “Absolute DNA transfection efficiency” value was 1.8%.
For `CCCCCCCCCCCCCNc1nc(NCCCCCCCCCCC)nc(NCCN(C)C)n1` [Compound N11N13D1], in that order: 5.9% and 1.4%.
For `CCCCCCCCCCCCCNc1nc(NCCCCCCCCCCC)nc(NCCN2CCOCC2)n1` [Compound N11N13D2], in that order: 0.1% and 0.0%.
For `CCCCCCCCCCCCCNc1nc(NCCCCCCCCCCC)nc(NCCN2CCCC2)n1` [Compound N11N13D3], the “Absolute mRNA transfection efficiency” value with HEK293 cells [1] is given as 3.6%. The “Absolute DNA transfection efficiency” value in the assay with HEK293 cells [2] was 0.0%.
For `CCCCCCCCCCCCCNc1nc(NCCCCCCCCCCC)nc(NCCN2CCCCC2)n1` [Compound N11N13D4], in that order: 0.9% and 0.0%.
The like results for `CCCCCCCCCCCCCNc1nc(NCCCCCCCCCCC)nc(NCCN2CCN(C)CC2)n1` [Compound N11N13D5] were, in that order, 0.2% and 0.1%.
Turning to `CCCCCCCCCCCCCNc1nc(NCCCCCCCCCCC)nc(NCCCN(C)C)n1` [Compound N11N13D6], the “Absolute mRNA transfection efficiency” value with HEK293 cells [1] was determined as 0.2%. The “Absolute DNA transfection efficiency” value in the assay with HEK293 cells [2] was determined as 0.8%.
Take `CCCCCCCCCCCCCNc1nc(NCCCCCCCCCCC)nc(NCCN(CC)CC)n1` [Compound N11N13D7]: the “Absolute mRNA transfection efficiency” value in the assay on HEK293 cells [1] came to 0.9%. Also, in the assay on HEK293 cells [2], the “Absolute DNA transfection efficiency” value turned out to be 0.5%.
For `CCCCCCCCCCCCCNc1nc(NCCCCCCCCCCC)nc(NCCCN2CCOCC2)n1` [Compound N11N13D8], in that order: 0.6% and 0.0%.
For `CCCCCCCCCCCCCNc1nc(NCCCCCCCCCCC)nc(NCCCN2CCN(C)CC2)n1` [Compound N11N13D9], in that order: 7.1% and 0.0%.
For `CCCCCCCCCCCCCNc1nc(NCCCCCCCCCCC)nc(NCC2CCN(C)CC2)n1` [Compound N11N13D10], in that order: 0.0% and 0.0%.
On to `CCCCCCCCCCCCCCCNc1nc(NCCCCCCCCCCC)nc(NCCN(C)C)n1` [Compound N11N15D1], for which the “Absolute mRNA transfection efficiency” value in the assay on HEK293 cells [1] was determined as 0.6%. The “Absolute DNA transfection efficiency” value in the assay on HEK293 cells [2] was determined as 1.3%.
As for `CCCCCCCCCCCCCCCNc1nc(NCCCCCCCCCCC)nc(NCCN2CCOCC2)n1` [Compound N11N15D2], the “Absolute mRNA transfection efficiency” value with HEK293 cells [1] was found to be 0.7%. Besides, the “Absolute DNA transfection efficiency” value in the assay on HEK293 cells [2] came to 0.3%.
The like results for `CCCCCCCCCCCCCCCNc1nc(NCCCCCCCCCCC)nc(NCCN2CCCC2)n1` [Compound N11N15D3] were, in that order, 2.7% and 0.3%.
`CCCCCCCCCCCCCCCNc1nc(NCCCCCCCCCCC)nc(NCCN2CCCCC2)n1` [Compound N11N15D4]: the “Absolute mRNA transfection efficiency” value in the assay on HEK293 cells [1] amounted to 2.8%. In addition, the “Absolute DNA transfection efficiency” value with HEK293 cells [2] was determined as 0.9%.
As to `CCCCCCCCCCCCCCCNc1nc(NCCCCCCCCCCC)nc(NCCN2CCN(C)CC2)n1` [Compound N11N15D5], the “Absolute mRNA transfection efficiency” value in the assay on HEK293 cells [1] is 0.8%. Moreover, the “Absolute DNA transfection efficiency” value with HEK293 cells [2] is recorded as 0.2%.
The like results for `CCCCCCCCCCCCCCCNc1nc(NCCCCCCCCCCC)nc(NCCCN(C)C)n1` [Compound N11N15D6] were, in that order, 0.3% and 1.6%.
For the compound `CCCCCCCCCCCCCCCNc1nc(NCCCCCCCCCCC)nc(NCCN(CC)CC)n1` [Compound N11N15D7], in the assay on HEK293 cells [1], the “Absolute mRNA transfection efficiency” value came out at 0.0%. Also, the “Absolute DNA transfection efficiency” value in the assay with HEK293 cells [2] turned out to be 0.2%.
For `CCCCCCCCCCCCCCCNc1nc(NCCCCCCCCCCC)nc(NCCCN2CCOCC2)n1` [Compound N11N15D8], in that order: 0.5% and 1.1%.
For `CCCCCCCCCCCCCCCNc1nc(NCCCCCCCCCCC)nc(NCCCN2CCN(C)CC2)n1` [Compound N11N15D9], in that order: 0.3% and 0.1%.
The like results for `CCCCCCCCCCCCCCCNc1nc(NCCCCCCCCCCC)nc(NCC2CCN(C)CC2)n1` [Compound N11N15D10] were, in that order, 1.6% and 0.4%.
As for `CCCCCCCCCCCCCCCCNc1nc(NCCCCCCCCCCC)nc(NCCN(C)C)n1` [Compound N11N16D1], the “Absolute mRNA transfection efficiency” value with HEK293 cells [1] was 0.6%. Further, the “Absolute DNA transfection efficiency” value with HEK293 cells [2] was 0.4%.
For `CCCCCCCCCCCCCCCCNc1nc(NCCCCCCCCCCC)nc(NCCN2CCOCC2)n1` [Compound N11N16D2], in that order: 1.0% and 0.0%.
With `CCCCCCCCCCCCCCCCNc1nc(NCCCCCCCCCCC)nc(NCCN2CCCC2)n1` [Compound N11N16D3], the “Absolute mRNA transfection efficiency” value in the assay with HEK293 cells [1] amounted to 3.6%. Moreover, the “Absolute DNA transfection efficiency” value in the assay on HEK293 cells [2] was determined as 1.2%.
The like results for `CCCCCCCCCCCCCCCCNc1nc(NCCCCCCCCCCC)nc(NCCN2CCCCC2)n1` [Compound N11N16D4] were, in that order, 0.0% and 0.1%.
The like results for `CCCCCCCCCCCCCCCCNc1nc(NCCCCCCCCCCC)nc(NCCN2CCN(C)CC2)n1` [Compound N11N16D5] were, in that order, 2.5% and 0.0%.
For `CCCCCCCCCCCCCCCCNc1nc(NCCCCCCCCCCC)nc(NCCCN(C)C)n1` [Compound N11N16D6], in that order: 1.4% and 0.2%.
Consider `CCCCCCCCCCCCCCCCNc1nc(NCCCCCCCCCCC)nc(NCCN(CC)CC)n1` [Compound N11N16D7], for which the “Absolute mRNA transfection efficiency” value with HEK293 cells [1] is 0.7%. Further, the “Absolute DNA transfection efficiency” value with HEK293 cells [2] stood at 0.0%.
For the compound `CCCCCCCCCCCCCCCCNc1nc(NCCCCCCCCCCC)nc(NCCCN2CCOCC2)n1` [Compound N11N16D8], in the assay with HEK293 cells [1], the “Absolute mRNA transfection efficiency” value came to 0.4%. The “Absolute DNA transfection efficiency” value with HEK293 cells [2] was determined as 0.0%.
The like results for `CCCCCCCCCCCCCCCCNc1nc(NCCCCCCCCCCC)nc(NCCCN2CCN(C)CC2)n1` [Compound N11N16D9] were, in that order, 0.9% and 0.0%.
For `CCCCCCCCCCCCCCCCNc1nc(NCCCCCCCCCCC)nc(NCC2CCN(C)CC2)n1` [Compound N11N16D10], in that order: 1.1% and 0.6%.
The like results for `CCCCCCCCCCCCCCCCCCNc1nc(NCCCCCCCCCCC)nc(NCCN(C)C)n1` [Compound N11N18D1] were, in that order, 7.2% and 3.4%.
For `CCCCCCCCCCCCCCCCCCNc1nc(NCCCCCCCCCCC)nc(NCCN2CCOCC2)n1` [Compound N11N18D2], the “Absolute mRNA transfection efficiency” value in the assay with HEK293 cells [1] is 0.8%. Also, the “Absolute DNA transfection efficiency” value with HEK293 cells [2] was 0.3%.
The like results for `CCCCCCCCCCCCCCCCCCNc1nc(NCCCCCCCCCCC)nc(NCCN2CCCC2)n1` [Compound N11N18D3] were, in that order, 2.8% and 0.6%.
The like results for `CCCCCCCCCCCCCCCCCCNc1nc(NCCCCCCCCCCC)nc(NCCN2CCCCC2)n1` [Compound N11N18D4] were, in that order, 2.3% and 1.9%.
The like results for `CCCCCCCCCCCCCCCCCCNc1nc(NCCCCCCCCCCC)nc(NCCN2CCN(C)CC2)n1` [Compound N11N18D5] were, in that order, 0.0% and 1.4%.
In the case of `CCCCCCCCCCCCCCCCCCNc1nc(NCCCCCCCCCCC)nc(NCCCN(C)C)n1` [Compound N11N18D6], the “Absolute mRNA transfection efficiency” value with HEK293 cells [1] was 0.0%. Further, in the assay on HEK293 cells [2], the “Absolute DNA transfection efficiency” value is listed as 0.4%.
The like results for `CCCCCCCCCCCCCCCCCCNc1nc(NCCCCCCCCCCC)nc(NCCN(CC)CC)n1` [Compound N11N18D7] were, in that order, 4.0% and 1.1%.
For `CCCCCCCCCCCCCCCCCCNc1nc(NCCCCCCCCCCC)nc(NCCCN2CCOCC2)n1` [Compound N11N18D8], in that order: 1.2% and 2.2%.
